The text below walks through data of patent US20220160716A1 (SORBONNE UNIVERSITE, priority 2019, published 2022).

One data set concerns the target CK1. The data set can be described thus: Protein kinase catalytic activity assay, CK1. The note with it: read-out: IC50 of protein kinases, CK1. It counts as biochemical.
A further data set has as its target ABCB4-I541F (Homo sapiens, UniProt P21439, I541F). The data set can be described thus: Maturation of ABCB4-I541F by immunoblot in HEK cells. The data set is classed as cell-based. Details: The subcloning of wild type (WT) ABCB4, isoform A (NM_000443.3), into pcDNA3 vector has been described; expressed in transfected cells; host or cells: HEK-293 (immunoblot, PC secretion). The note with it: HEK cells, 100 μM, 16 hours, immunoblot. Here is the method:
(§1) Cyclosporin A (CsA) was from Santa Cruz Biotechnologies (Dallas, Tex.). […] Each compound was solubilized in dimethylsulfoxide (DMSO) as 1000× concentrated stock solutions in order to treat cells with 5 μM to 100 μM final concentrations, using DMSO as control vehicle at the same dilution (0.1% DMSO for all conditions). The cells were treated 24 hours post-transfection with these drugs during 16 hours, except for the viability assays for which cells were treated during three days. After drug treatment, cells were used for immunoanalyses, cell viability assays or PC secretion assays.
Western blots and indirect immunofluorescence were performed as previously described (2, 12). […] Signals were detected with ECL prime western blotting detection reagent (GE Healthcare, Velizy-Villacoublay, France) and quantified in the linear range of detection using ImageJ 1.50i software (U.S. National Institutes of Health, Bethesda, Md.).

A further data set concerns the target T1, CDK2/A (Homo sapiens, UniProt P24941).
T1 construct: made in house
The data set can be described thus: Protein kinase catalytic activity assay, CDK2/cyclin A. The data set is classed as biochemical. To be noted: activator cyclin A; read-out: IC50 of protein kinases, CDK2/A.

A further data set addresses T2, CDK5/p25 (Homo sapiens, UniProt Q00535).
T2 construct: made in house
The data set is classed as biochemical. To be noted: activator p25; read-out: IC50 of protein kinases, CDK5/p25.

Another data set has as its target T3, DYRK1A (Homo sapiens, UniProt Q13627).
T3 construct: made in house
The data set can be described thus: Protein kinase catalytic activity assay, DYRK1A. The data set is classed as biochemical. The note with it: read-out: IC50 of protein kinases, DYRK1A.

In another data set the target is T4, CDK9/T (Homo sapiens, UniProt P50750).
T4 construct: made in house
The data set can be described thus: Protein kinase catalytic activity assay, CDK9/cyclin T. It counts as biochemical. To be noted: activator cyclin T; read-out: IC50 of protein kinases, CDK9/T.

The target of the next data set is GSK3 (Homo sapiens, UniProt P49841). Nature of the data set: Protein kinase catalytic activity assay, GSK3. The note with it: read-out: IC50 of protein kinases, GSK3. The data set is classed as biochemical.
A further data set deals with T5, CLK1 (Homo sapiens, UniProt P49759).
T5 construct: made in house
The data set can be described thus: Protein kinase catalytic activity assay, CLK1. The data set is classed as biochemical. To be noted: read-out: IC50 of protein kinases, CLK1.

The next data set deals with HEK cells. Nature of the data set: Cell viability MTT assay in HEK cells. The note with it: three days. How it is done: as §1
Cell viability was assessed by the conversion of MTT (3-[4,5-dimethylthiazol-2-yl]-2,5 diphenyl tetrazolium bromide) into formazan crystals by living cells, as described (14). […] These conditions were optimized in order to maintain the absorbance at 540 nm of the blanks below 0.1 OD unit (negative controls) and the absorbance at 540 nm for untreated cells between 1.0 and 1.3 OD units (positive controls). Then culture media were gently washed out, cells were lysed in 100 μL of pure DMSO and absorbance at 540 nm was measured using a multiplate cytofluorimeter SpectraFluor from Tecan (Männedorf, Switzerland). Cell viability was calculated for each triplicate after background subtraction and expressed as percentage of the mean for cells treated with vehicle only.
In general terms: Formazan colour is commonly taken as a measure of viable cells.

The structures appear in SMILES notation. Some results are limits rather than exact numbers.

Sequence of ABCB4-I541F (P21439 1-1279 isoform P21439-2 I541F): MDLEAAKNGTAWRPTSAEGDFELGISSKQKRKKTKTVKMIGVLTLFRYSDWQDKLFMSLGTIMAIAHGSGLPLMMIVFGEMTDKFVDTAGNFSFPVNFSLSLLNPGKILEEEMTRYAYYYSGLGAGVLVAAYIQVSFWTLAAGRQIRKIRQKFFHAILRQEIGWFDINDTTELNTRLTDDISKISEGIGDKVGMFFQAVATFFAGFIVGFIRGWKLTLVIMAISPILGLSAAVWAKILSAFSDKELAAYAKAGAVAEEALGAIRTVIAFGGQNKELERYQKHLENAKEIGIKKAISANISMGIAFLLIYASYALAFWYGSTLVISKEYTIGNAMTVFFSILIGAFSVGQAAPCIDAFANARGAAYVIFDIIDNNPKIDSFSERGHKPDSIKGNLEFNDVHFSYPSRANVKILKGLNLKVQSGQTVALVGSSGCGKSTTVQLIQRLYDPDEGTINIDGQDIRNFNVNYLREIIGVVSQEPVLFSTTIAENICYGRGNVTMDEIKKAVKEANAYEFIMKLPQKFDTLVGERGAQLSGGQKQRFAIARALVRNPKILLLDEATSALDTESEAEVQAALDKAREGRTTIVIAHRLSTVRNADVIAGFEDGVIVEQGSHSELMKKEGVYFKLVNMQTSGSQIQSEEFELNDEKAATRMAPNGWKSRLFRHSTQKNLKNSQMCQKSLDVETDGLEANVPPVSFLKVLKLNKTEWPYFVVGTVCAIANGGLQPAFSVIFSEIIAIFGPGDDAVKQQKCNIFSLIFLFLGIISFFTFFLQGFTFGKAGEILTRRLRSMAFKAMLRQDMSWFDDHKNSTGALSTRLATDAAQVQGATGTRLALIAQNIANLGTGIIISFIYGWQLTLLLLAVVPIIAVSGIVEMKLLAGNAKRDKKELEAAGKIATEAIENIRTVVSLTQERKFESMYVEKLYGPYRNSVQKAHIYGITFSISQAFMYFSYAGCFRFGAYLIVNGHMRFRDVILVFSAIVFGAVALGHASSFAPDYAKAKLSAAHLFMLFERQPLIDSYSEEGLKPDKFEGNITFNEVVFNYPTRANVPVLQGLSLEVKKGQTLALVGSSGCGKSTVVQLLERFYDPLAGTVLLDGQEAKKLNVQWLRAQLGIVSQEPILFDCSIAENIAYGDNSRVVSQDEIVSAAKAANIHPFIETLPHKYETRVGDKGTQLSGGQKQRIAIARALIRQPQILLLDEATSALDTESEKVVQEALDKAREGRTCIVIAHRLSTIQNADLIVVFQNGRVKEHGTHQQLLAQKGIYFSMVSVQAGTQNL
T4 sequence (P50750 whole entry, species assumed): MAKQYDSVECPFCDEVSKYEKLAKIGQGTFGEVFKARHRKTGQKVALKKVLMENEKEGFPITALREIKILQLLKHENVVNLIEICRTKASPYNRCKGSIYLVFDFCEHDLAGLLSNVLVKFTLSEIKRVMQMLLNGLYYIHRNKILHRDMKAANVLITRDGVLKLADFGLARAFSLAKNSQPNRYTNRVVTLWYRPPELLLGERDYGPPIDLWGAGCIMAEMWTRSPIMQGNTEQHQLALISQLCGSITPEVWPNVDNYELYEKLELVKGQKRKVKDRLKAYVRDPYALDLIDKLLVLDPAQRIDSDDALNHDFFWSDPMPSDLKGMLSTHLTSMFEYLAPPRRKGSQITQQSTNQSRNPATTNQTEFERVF
T4 sequence (O60563 whole entry partner, species assumed): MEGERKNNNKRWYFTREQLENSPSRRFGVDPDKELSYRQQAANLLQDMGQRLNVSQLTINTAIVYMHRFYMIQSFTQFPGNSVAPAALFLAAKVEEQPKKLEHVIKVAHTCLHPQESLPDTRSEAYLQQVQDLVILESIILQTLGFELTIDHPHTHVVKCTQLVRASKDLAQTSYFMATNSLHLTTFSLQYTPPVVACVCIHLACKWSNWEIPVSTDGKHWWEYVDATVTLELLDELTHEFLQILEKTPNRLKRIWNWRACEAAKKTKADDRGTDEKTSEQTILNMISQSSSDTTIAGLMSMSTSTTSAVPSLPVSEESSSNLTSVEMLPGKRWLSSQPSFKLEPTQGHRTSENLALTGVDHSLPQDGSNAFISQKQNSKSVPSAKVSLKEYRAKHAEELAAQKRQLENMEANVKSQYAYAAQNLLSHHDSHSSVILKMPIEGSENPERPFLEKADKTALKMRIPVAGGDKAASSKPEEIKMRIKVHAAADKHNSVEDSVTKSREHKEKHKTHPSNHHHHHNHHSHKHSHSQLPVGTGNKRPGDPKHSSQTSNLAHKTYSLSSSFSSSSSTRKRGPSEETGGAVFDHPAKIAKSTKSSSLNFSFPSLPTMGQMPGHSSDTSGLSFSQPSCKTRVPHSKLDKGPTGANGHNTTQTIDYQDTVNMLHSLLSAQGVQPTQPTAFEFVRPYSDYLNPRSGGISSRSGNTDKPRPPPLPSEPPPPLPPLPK
T5 sequence (P49759 whole entry): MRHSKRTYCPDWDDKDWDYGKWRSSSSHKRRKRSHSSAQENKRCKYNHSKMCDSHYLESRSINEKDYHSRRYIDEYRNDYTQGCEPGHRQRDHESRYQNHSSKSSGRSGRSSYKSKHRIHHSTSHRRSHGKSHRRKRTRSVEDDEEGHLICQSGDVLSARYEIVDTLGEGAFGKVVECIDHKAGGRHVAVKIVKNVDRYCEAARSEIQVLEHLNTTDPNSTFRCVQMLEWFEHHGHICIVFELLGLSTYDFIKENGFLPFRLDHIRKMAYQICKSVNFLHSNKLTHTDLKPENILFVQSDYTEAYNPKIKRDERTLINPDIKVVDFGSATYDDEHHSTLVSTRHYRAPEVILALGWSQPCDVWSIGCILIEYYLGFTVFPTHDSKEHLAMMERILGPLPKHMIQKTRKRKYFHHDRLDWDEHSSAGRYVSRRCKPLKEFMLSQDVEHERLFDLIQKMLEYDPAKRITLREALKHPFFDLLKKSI
Sequence of GSK3 (P49841 whole entry): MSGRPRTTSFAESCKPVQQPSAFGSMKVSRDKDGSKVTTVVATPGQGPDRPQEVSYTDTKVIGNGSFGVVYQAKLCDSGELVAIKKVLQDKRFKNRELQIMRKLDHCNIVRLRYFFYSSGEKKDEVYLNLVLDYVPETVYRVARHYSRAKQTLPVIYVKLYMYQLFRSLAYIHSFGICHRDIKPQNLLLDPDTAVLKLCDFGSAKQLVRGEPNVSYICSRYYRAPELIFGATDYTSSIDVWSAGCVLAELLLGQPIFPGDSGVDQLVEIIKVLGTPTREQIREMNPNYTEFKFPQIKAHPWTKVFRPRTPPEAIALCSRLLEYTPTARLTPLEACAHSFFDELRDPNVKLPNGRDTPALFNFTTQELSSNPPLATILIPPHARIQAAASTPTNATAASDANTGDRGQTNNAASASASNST
T2 sequence (Q00535 whole entry, species assumed): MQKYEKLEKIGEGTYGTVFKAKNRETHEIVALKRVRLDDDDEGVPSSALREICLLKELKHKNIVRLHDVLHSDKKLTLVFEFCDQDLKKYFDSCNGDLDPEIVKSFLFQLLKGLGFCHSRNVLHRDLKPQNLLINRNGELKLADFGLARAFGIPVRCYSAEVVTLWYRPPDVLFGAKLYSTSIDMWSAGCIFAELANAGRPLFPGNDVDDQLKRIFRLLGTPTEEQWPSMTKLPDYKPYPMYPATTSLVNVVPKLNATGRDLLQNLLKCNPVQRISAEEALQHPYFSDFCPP
T2 sequence (Q15078 99-307 partner limits assumed, species assumed): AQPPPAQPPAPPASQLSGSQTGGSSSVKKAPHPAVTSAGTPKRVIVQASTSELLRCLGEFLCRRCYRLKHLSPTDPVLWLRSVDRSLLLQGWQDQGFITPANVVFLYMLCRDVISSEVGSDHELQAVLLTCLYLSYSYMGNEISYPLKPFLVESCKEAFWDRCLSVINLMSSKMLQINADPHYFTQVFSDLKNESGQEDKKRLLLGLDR

On to `CC[C@@H](Nc1nc(NCc2cccc(C(F)(F)F)c2)c2ncn(C3CCCC3)c2n1)C(=O)O` [MRT2-239], for which the IC50 at CK1 was 4 µM; at CDK2/A, 8 µM; on CDK5/p25, 11 µM; on DYRK1A, 21 µM; at CDK9/T, 20 µM; at GSK3, above 10 µM. In addition, on CLK1, the IC50 was 9 µM. In addition, at ABCB4-I541F, the “maturation (mature form) of ABCB4-I541F” value is given as “significantly increase the expression of a mature form of ABCB4-I541F”.
With `CC[C@@H](Nc1nc(NCc2cccc(C(F)(F)F)c2)c2ncn(C(C)C)c2n1)C(=O)O` [MRT2-249], the IC50 was 5 µM on CK1; 9 µM on CDK2/A; 27 µM on CDK5/p25; 9 µM at DYRK1A; above 33 µM on CDK9/T; above 10 µM on GSK3. Moreover, the IC50 at CLK1 turned out to be 23 µM. In addition, on ABCB4-I541F, the “maturation (mature form) of ABCB4-I541F” value is given as “significantly increase the expression of a mature form of ABCB4-I541F”.
As to `CC[C@@H](Nc1nc(NCc2ccccc2)c2ncn(C(C)C)c2n1)C(=O)O` [M3, reference compound], the IC50 at CK1 is above 33 µM; on DYRK1A, 19 µM; at CDK9/T it was above 33 µM; at GSK3 it was above 10 µM; at CLK1, above 33 µM.
As to `CC[C@H](CO)Nc1nc(NCc2ccccc2)c2ncn(C(C)C)c2n1` [Roscovitine, (R)-roscovitine], in the data set with HEK cells (25 μM, % of vehicle-treated cells), the cell viability result is listed as “less than 60%”. Also, the cytotoxicity entry in the data set on HEK cells (increasing concentrations) is reported as “important dose-dependent cytotoxicity”.
Take `CC[C@@H](Nc1nc(NCc2ccccc2)c2ncn(C3CCCC3)c2n1)C(=O)O` [MRT2-245]: the IC50 at CK1 was 17 µM; at CDK2/A it was 6.3 µM; at CDK5/p25 it was 15 µM; on DYRK1A, 21 µM; at CDK9/T, 28 µM; on GSK3, above 10 µM. In addition, the IC50 on CLK1 is 13 µM. At ABCB4-I541F, the “maturation (mature form) of ABCB4-I541F” value is “significantly increase the expression of a mature form of ABCB4-I541F”.
Consider `CC(C)n1cnc2c(NCc3ccccc3)nc(N[C@@H](CO)C(=O)O)nc21` [MRT2-164], for which the IC50 at CK1 was 28 µM; at DYRK1A it was above 10 µM; at CDK9/T, 17 µM; on GSK3, above 10 µM; at CLK1, above 33 µM.
`CC[C@@H](Nc1nc(NCc2ccc(F)c(F)c2)c2ncn(C3CCCC3)c2n1)C(=O)O` [MRT2-241]: the IC50 at CK1 was 11 µM; at CDK2/A it was 5.1 µM; on CDK5/p25 it was 17 µM; on DYRK1A it was 20 µM; on CDK9/T it was 8 µM; on GSK3, above 10 µM. Further, at CLK1, the IC50 was 13 µM. The “maturation (mature form) of ABCB4-I541F” value on ABCB4-I541F is given as “significantly increase the expression of a mature form of ABCB4-I541F”.
